Columns and labels:
[1] = test system: HBV viral production in AD38 cells; experiment: Viral load production in AD38 cells by quantitative PCR of the HBV core sequence in supernatant; type: cell-based; conditions: Hepatitis B virus, 144 h; 10 μM compound, 6 days at 37° C., viral load in supernatant compared against DMSO control wells; read-out: AD38 Viral Load (CpAM/DMSO %) at 10 μM
Method in brief: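 Read-out is TaqMan qPCR of the HBV core region in supernatant, quantitated against standards and referenced to DMSO controls (≥3 per plate). Cells: AD38 at 50,000/well, exposed to compound (added as 10× stock in 10% DMSO) for 6 days at 37° C.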

[2] = test system: AD38 cells; experiment: Viability of AD38 cells (Promega CellTiter-Glo) at the end of compound treatment; type: cell-based; conditions: 10 μM compound, 6 days, luminescence normalized against DMSO control wells (controls being 100%)
Method in brief: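 Luminescent CellTiter-Glo read-out, taken after supernatant was swapped for tetracycline-free 2% FBS medium with 1% DMSO, gave percent viability relative to DMSO controls set at 100%. Cells were plated at 50,000/well and exposed to compound, added as a 10× stock in 10% DMSO, for 6 days at 37° C.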

SMILES	activity at 10 µM [1] [%]	AD38 Viability Normalized Result (CPAM/DMSO %) at 10 μM [2] [%]
COC(=O)c1ccc(-c2cccc(NC(=O)c3ccc4c(c3)NC(=O)c3cc(F)ccc3S4)c2)cc1 [Compound 1420, Methyl 3′-(2-fluoro-11-oxo-10, 11-dihydrodibenzo [b,f] [1,4]thiazepine-8-carboxamido)-[1,1′-biphenyl]-4-carboxylate]	29	86
O=C(O)c1cccc(-c2cccc(NC(=O)c3ccc4c(c3)NC(=O)c3cc(F)ccc3S4)c2)c1 [Compound 1421, 3′-(2-fluoro-11-oxo-10, 11-dihydrodibenzo [b,f] [1,4]thiazepine-8-carboxamido)-[1, 1′-biphenyl]-3-carboxylic acid]	78	95
COC(=O)c1cccc(-c2cccc(NC(=O)c3ccc4c(c3)NC(=O)c3cc(F)ccc3S4)c2)c1 [Compound 1422, Methyl 3′-(2-fluoro-11-oxo-10, 11-dihydrodibenzo [b,f] [1,4]thiazepine-8-carboxamido)-[1, 1′-biphenyl]-3-carboxylate]	64	95
O=C(NCCc1cncnc1)c1ccc2c(c1)NC(=O)c1ccccc1[S+]2[O-] (stereo not drawn) [Compound 1423]	37	91
CCOC(=O)C(NC(=O)c1ccc2c(c1)NC(=O)c1cc(F)ccc1S2)c1ccccn1 (stereo not drawn) [Compound 1424]	65	96
O=C(NCc1cccnc1)c1ccc2c(c1)NC(=O)c1ccccc1[S+]2[O-] (stereo not drawn) [Compound 1427]	7	85
O=C(NCc1cncnc1)c1cc2c(cc1F)Sc1ccccc1C(=O)N2 [Compound 1428]	28	93
O=C(NCc1cncs1)c1cc2c(cc1F)Sc1ccccc1C(=O)N2 [Compound 1429]	38	90
O=C(NCc1cnco1)c1cc2c(cc1F)Sc1ccccc1C(=O)N2 [Compound 1430]	56	92
O=C1Nc2cc(S(=O)(=O)N3CCC(O)CC3)ccc2Sc2ccccc21 [Compound 1431]	115	92
O=C1Nc2cc(S(=O)(=O)N3CCCC3)ccc2Sc2ccccc21 [Compound 1432]	79	91
O=C1Nc2cc(S(=O)(=O)N3CCC(O)C3)ccc2Sc2ccccc21 (stereo not drawn) [Compound 1433]	82	94
O=C1Nc2cc(S(=O)(=O)N3CC(O)C3)ccc2Sc2ccccc21 [Compound 1434]	85	96
O=C(Nc1cccc(-c2ccccc2C(=O)O)c1)c1ccc2c(c1)NC(=O)c1cc(F)ccc1S2 [Compound 1435, 3′-(2-fluoro-11-oxo-10, 11-dihydrodibenzo [b,f] [1,4]thiazepine-8-carboxamido)-[1, 1′-biphenyl]-2-carboxylic acid]	77	99
COC(=O)c1ccccc1-c1cccc(NC(=O)c2ccc3c(c2)NC(=O)c2cc(F)ccc2S3)c1 [Compound 1436, Methyl 3′-(2-fluoro-11-oxo-10, 11-dihydrodibenzo [b,f] [1,4]thiazepine-8-carboxamido)-[1, 1′-biphenyl]-2-carboxylate]	10	104
O=C(Nc1cccc(-c2cncnc2)c1)c1ccc2c(c1)NC(=O)c1cc(F)ccc1S2 [Compound 1440]	71	91
O=C(Nc1cccc(-c2cncs2)c1)c1ccc2c(c1)NC(=O)c1cc(F)ccc1S2 [Compound 1441]	28	90
O=C(Nc1nncs1)c1ccc2c(c1)NC(=O)c1cc(F)ccc1S2 [Compound 1442]	65	99
O=C(Nc1ncc(Cl)s1)c1ccc2c(c1)NC(=O)c1cc(F)ccc1S2 [Compound 1443]	64	95
O=C(Nc1ccncc1)c1ccc2c(c1)NC(=O)c1ccccc1S2 [Compound 1444]	6	65
O=C(Nc1cccc(-c2ccccc2)c1)c1ccc2c(c1)NC(=O)c1ccccc1S2 [Compound 1445]	24	38

SMILES	activity at 10 µM [1] [%]	AD38 Viability Normalized Result (CPAM/DMSO %) at 10 μM [2] [%]
O=C(NCc1cncnc1)c1ccc2c(c1)NC(=O)c1ccccc1S2(=O)=O [Compound 1446]	3	84
O=C(NCCc1ccccn1)c1ccc2c(c1)NC(=O)c1ccccc1S2(=O)=O [Compound 1447]	1	85
O=C(NCCc1cccnc1)c1ccc2c(c1)NC(=O)c1ccccc1S2(=O)=O [Compound 1448]	3	85
O=C(NCc1cccnc1)c1ccc2c(c1)NC(=O)c1ccccc1S2(=O)=O [Compound 1449]	2	86
CC(C)NS(=O)(=O)c1ccc2c(c1)NC(=O)c1ccccc1S2 [Compound 1450]	73	94
O=C(Nc1cccc(-c2ccncn2)c1)c1ccc2c(c1)NC(=O)c1cc(F)ccc1S2 [Compound 1451]	30	92
COc1cccc(-c2cccc(NC(=O)c3ccc4c(c3)NC(=O)c3cc(F)ccc3S4)c2)c1 [Compound 1452]	15	62
O=C(Nc1cccc(-c2ccc(O)cc2)c1)c1ccc2c(c1)NC(=O)c1cc(F)ccc1S2 [Compound 1453]	48	97
O=C(Nc1nc(-c2ccccc2)co1)c1ccc2c(c1)NC(=O)c1cc(F)ccc1S2 [Compound 1454]	27	95
O=C(NCc1cncs1)c1ccc2c(c1)NC(=O)c1ccccc1S2(=O)=O [Compound 1455]	3	89
O=C(NCc1cnco1)c1ccc2c(c1)NC(=O)c1ccccc1S2(=O)=O [Compound 1456]	15	101
O=C(NCCc1cncnc1)c1ccc2c(c1)NC(=O)c1ccccc1S2(=O)=O [Compound 1457]	28	92
O=C(Nc1cccc(-c2ccccc2)c1)c1ccc2c(c1)NC(=O)c1ccccc1S2(=O)=O [Compound 1458]	12	49
Cc1c(C(=O)NCCc2ccccn2)ccc2c1NC(=O)c1ccccc1S2 [Compound 1459]	4	92
O=C(Nc1ccncc1)c1ccc2c(c1)NC(=O)c1ccccc1S2(=O)=O [Compound 1462]	35	99
O=C(Nc1ccncc1)c1ccc2c(c1)NC(=O)c1c(F)cccc1S2 [Compound 1463]	31	97
O=C(NCCc1cncnc1)c1ccc2c(c1)NC(=O)c1ccccc1N2Cc1ccccc1 [Compound 1464]	49	98
O=C(NCCc1ccc(-c2ccccc2)cc1)c1ccc2c(c1)NC(=O)c1c(F)cccc1S2 [Compound 1465]	39	106
O=C(NCCc1ccc(-c2ccccc2)cc1)c1ccc2c(c1)NC(=O)c1cccc(F)c1S2 [Compound 1466]	7	88
Cc1c(C(=O)NCCc2cccnc2)ccc2c1NC(=O)c1ccccc1S2 [Compound 1467]	1	92
O=C(Nc1cccc(-c2cccc(O)c2)c1)c1ccc2c(c1)NC(=O)c1cc(F)ccc1S2 [Compound 1468]	76	97

Reference: patent US10183936B2, “Hepatitis B core protein allosteric modulators” (priority 2014, dated 2019)
